Assay results: patent US20190375708A1 (VenatoRx Pharmaceuticals, Inc., priority 2018, published 2019)

Columns and labels:
[1] = In vitro cytotoxicity assay (MTT cell viability) in HepG2 cells; assay type: cell-based, human; conditions: human
Method in brief: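 HepG2 seeded overnight, then 7-day compound exposure (30 μM–1.0 nM, half-log steps), 37 °C. MTT 3-4 h, DMSO solubilization, A492. % of vehicle → CC50, 4-PL fit.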

[2] = system: HBV replication in HepAD38 cells; assay: Anti-HBV replication assay in HepAD38 cells (QPCR of extracellular HBV DNA); assay type: cell-based, HBV (genotype D, serotype ayw); conditions: Hepatitis B virus, 168 h, 7 days incubation, extracellular HBV DNA by QPCR, read-out: Anti-HBV EC50
Method in brief: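 Steps: seed HepAD38 overnight without tetracycline; refresh medium and add 1 log10 serial dilutions ([…]); incubate 7 days at 37 °C; quantify supernatant HBV DNA by QPCR; derive EC50 from a 4-parameter dose-response fit.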

Structure (SMILES)	CC50 at 7 days [1] [µM]	EC50 [2] [µM]
Cc1cc(NC(=O)c2c(C)c(C(=O)C(=O)N[C@@H]3CC[C@@H](O)C3)n(C)c2C)ccc1F [Example 127, N-(4-fluoro-3-methylphenyl)-5-(2-(((1R,3R)-3-hydroxycyclopentyl)amino)-2-oxoacetyl)-1,2,4-trimethyl-1H-pyrrole-3-carboxamide]	> 30	< 0.05
Cc1c(C(=O)Nc2cncc(Cl)c2)c(C)n(C)c1C(=O)C(=O)N[C@H](C)C(F)(F)F [Example 727, (R)-N-(5-chloropyridin-3-yl)-1,2,,4-trimethyl-5-(2-oxo-2-((1,1,1-trifluoropropan-2-yl)amino)acetyl)-1H-pyrrole-3-carboxamide]	> 30	< 0.05
Cc1cc(NC(=O)c2c(C)c(C(=O)C(=O)NC3(C)CCN(c4ccncn4)CC3)n(C)c2C)ccc1F [Example 717]	5 to 30	< 0.05
Cc1cc(NC(=O)c2c(C)c(C(=O)C(=O)NCC(C)(C)CO)n(C)c2C)ccc1F [Example 65, N-(4-fluoro-3-methylphenyl)-5-(2-((3-hydroxy-2,2-dimethylpropyl)amino)-2-oxoacetyl)-1,2,4-trimethyl-1H-pyrrole-3-carboxamide]	> 30	< 0.05
Cc1cc(NC(=O)c2c(C)c(C(=O)C(=O)NC3(CN4CCN(c5ccc(Cl)cc5)CC4)CC3)n(C)c2C)ccc1F [Example 661, 5-(2-((1-((4-(4-chlorophenyl)piperazin-1-yl)methyl)cyclopropyl)amino)-2-oxoacetyl)-N-(4-fluoro-3-methylphenyl)-1,2,4-trimethyl-1H-pyrrole-3-carboxamide]	5 to 30	< 0.05
Cc1cc(NC(=O)c2c(C)c(C(=O)C(=O)N[C@@H]3C[C@H](O)[C@H]4OC(C)(C)O[C@H]43)n(C)c2C)ccc1F [Example 695, N-(4-fluoro-3-methylphenyl)-5-(2-(((3aS,4R,6S,6aR)-6-hydroxy-2,2-dimethyltetrahydro-4H-cyclopenta[d][1,3]dioxol-4-yl)amino)-2-oxoacetyl)-1,2,4-trimethyl-1H-pyrrole-3-carboxamide]	> 30	< 0.05
CC(C)(O)CNC(=O)C(=O)c1c(Cl)c(C(=O)Nc2ccnc(F)c2)c2n1CCCC2 [Example 530, 2-chloro-N-(22-fluoropyridin-4-yl)-3-(22-((2-hydroxy-2-methylpropyl)amino)-2-oxoacetyl)-5,6,7,8-tetrahydroindolizine-1-carboxamide]	> 30	> 1
Cc1cc(NC(=O)c2c(C)c(C(=O)C(=O)N3CCC(O)CC3)n(C)c2C)ccc1F [Example 47, N-(4-fluoro-3-methylphenyl)-5-(2-(4-hydroxypiperidin-1-yl)-2-oxoacetyl)-1,2,4-trimethyl-1H-pyrrole-3-carboxamide]	0.5 to 4.99	0.05 to 0.499
Cc1cc(NC(=O)c2c(C)c(C(=O)C(=O)NCC(C)(O)c3cccs3)n(C)c2C)ccc1F (stereo not shown) [Example 647, N-(4-fluoro-3-methylphenyl)-5-(2-((2-hydroxy-2-(thiophen-2-yl)propyl)amino)-2-oxoacetyl)-1,2,4-trimethyl-1H-pyrrole-3-carboxamide]	> 30	< 0.05
Cc1cnc(C(C)(C)NC(=O)C(=O)c2cc(C(=O)Nc3ccc(F)c(C)c3)c3n2CCCC3)s1 [Example 413, N-(4-fluoro-3-methylphenyl)-3-(2-((2-(5-methylthiazol-2-yl)propan-2-yl)amino)-2-oxoacetyl)-5,6,7,8-tetrahydroindolizine-1-carboxamide]	> 30	0.05 to 0.499
CC(=O)N[C@H]1C[C@@H](NC(=O)C(=O)c2c(C)c(C(=O)Nc3ccc(F)c(C)c3)c(C)n2C)C1 [Example 668, 5-(2-(((1s,3s)-3-acetamidocyclobutyl)amino)-2-oxoacetyl)-N-(4-fluoro-3-methylphenyl)-1,2,4-trimethyl-1H-pyrrole-3-carboxamide]	> 30	< 0.05
CCn1c(C)c(C(=O)Nc2ccc(F)c(C)c2)c(C)c1C(=O)C(=O)NC(C)(C)C(N)=O [Example 99, 5-(2-((1-amino-2-methyl-1-oxopropan-2-yl)amino)-2-oxoacetyl)-1-ethyl-N-(4-fluoro-3-methylphenyl)-2,4-dimethyl-1H-pyrrole-3-carboxamide]	> 30	0.05 to 0.499
CC(C)(CO)CNC(=O)C(=O)c1c(Cl)c(C(=O)Nc2ccc(F)c(F)c2)c2n1CCC2 [Example 559, 6-chloro-N-(3,4-difluorophenyl)-5-(2-((3-hydroxy-2,2-dimethylpropyl)amino)-2-oxoacetyl)-2,3-dihydro-1H-pyrrolizine-7-carboxamide]	> 30	0.05 to 0.499
Cc1noc([C@@H](C)NC(=O)C(=O)c2c(Cl)c(C(=O)Nc3ccc(F)c(C)c3)c3n2CCCC3)n1 [Example 495, (R)-2-chloro-N-(4-fluoro-3-methylphenyl)-3-(2-((1-(3-methyl-1,2,4-oxadiazol-5-yl)ethyl)amino)-2-oxoacetyl)-5,6,7,8-tetrahydroindoliizine-1-carboxamide]	5 to 30	< 0.05
Cc1cc(NC(=O)c2c(C)c(C(=O)C(=O)N[C@@H](C(N)=O)C(C)C)n(C)c2C)ccc1F [Example 105, (R)-5-(2-((1-amino-3-methyl-1-oxobutan-2-yl)amino)-2-oxoacetyl)-N-(4-fluoro-3-methylphenyl)-1,2,4-trimethyl-1H-pyrrole-3-carboxamide]	5 to 30	< 0.05
Cc1cc(NC(=O)c2c(C)c(C(=O)C(=O)N[C@@H]3CCC[C@H]3O)n(CCF)c2C)ccc1F [Example 195, N-(4-fluoro-3-methylphenyl)-1-(2-fluoroethyl)-5-(2-(((1R,2R)-2-hydroxycyclopentyl)amino)-2-oxoacetyl)-2,4-dimethyl-1H-pyrrole-3-carboxamide]	> 30	< 0.05
Nc1ncc(CNC(=O)C(=O)c2c(Cl)c(C(=O)Nc3ccc(F)c(F)c3)c3n2CCC3)s1 [Example 569, 5-(2-(((2-aminothiazol-5-yl)methyl)amino)-2-oxoacetyl)-6-chloro-N-(3,4-difluorophenyl)-2,3-dihydro-1H-pyrrolizine-7-carboxamide]	> 30	< 0.05
Cc1cc(NC(=O)c2c(C)c(C(=O)C(=O)NC(C)(C)C)n(CCF)c2C)cnc1F [Example 225, 5-(2-(tert-butylamino)-2-oxoacetyl)-N-(6-fluoro-5-methylpyridin-3-yl)-1-(2-fluoroethyl)-2,4-dimethyl-1H-pyrrole-3-carboxamide]	> 30	0.5 to 1
Cc1cc(NC(=O)c2c(C)c(C(=O)C(=O)N[C@@H]3CCC[C@@H]3O)n(C)c2Cl)ccc1F [Example 390, 2-chloro-N-(4-fluoro-3-methylphenyl)-5-(2-(((1R,2S)-2-hydroxycyclopentyl)amino)-2-oxacetyl)-1,4-dimethyl-1H-pyrrole-3-carboxamide]	> 30	0.05 to 0.499
Cc1cc(NC(=O)c2c(C)c(C(=O)C(=O)N[C@@H]3CCC[C@@H](O)C3)n(C)c2C)ccc1F [Example 287, N-(4-fluoro-3-methylphenyl)-5-(2-(((1R,3R)-3-hydroxycyclohexyl)amino)-2-oxoacetyl)-1,2,4-trimethyl-1H-pyrrole-3-carboxamide]	> 30	< 0.05
Cc1cc(NC(=O)c2c(C)c(C(=O)C(=O)N[C@H]3CNC(=O)C3(C)C)n(C)c2C)ccc1F [Example 621, (R)-5-(2-((4,4-dimethyl-5-oxopyrrolidin-3-yl)amino)-2-oxoacetyl)-N-(4-fluoro-3-methylphenyl)-1,2,4-trimethyl-1H-pyrrole-3-carboxamide]	> 30	< 0.05
Cc1c(C(=O)Nc2ccnc(Cl)c2)c(C)n(C)c1C(=O)C(=O)N[C@H](C)C(F)(F)F [Example 208, (R)-N-(2-chloropyridin-4-yl)-1,2,4-trimethyl-5-(2-oxo-2-((1,1,1-trifluoropropan-2-yl)amino)acetyl)-1H-pyrrole-3-carboxamide]	> 30	< 0.05
Cc1cc(NC(=O)c2c(Cl)c(C(=O)C(=O)NCC(C)(C)O)n3c2CCC3)ccc1F [Example 550, 6-chloro-N-(4-fluoro-3-methylphenyl)-5-(2-((2-hydroxy-2-methylpropyl)amino)-2-oxoacetyl)-2,3-dihydro-1H-pyrrolizine-7-carboamide]	> 30	< 0.05
Cc1nc(CCNC(=O)C(=O)c2c(C)c(C(=O)Nc3ccc(F)c(C)c3)c(C)n2C)c(C)s1 [Example 327, 5-(2-((2-(2,5-dimethylthiazol-4-yl)ethyl)amnio)-2-oxoacetyl)-N-(4-fluoro-3-methylphenyl)-1,2,4-trimethyl-1H-pyrrole-3-carboxamide]	> 30	< 0.05
C#CCO[C@H]1CC[C@@H](NC(=O)C(=O)c2c(C)c(C(=O)Nc3ccc(F)c(C)c3)c(C)n2C)CC1 [Example 629, N-(4-fluoro-3-methylphenyl)-1,2,4-trimethyl-5-(2-oxo-2-(((1s,4s)-4-(prop-2-yn-1-yloxy)cyclohexxyl)amino)acetyl)-1H-pyrrole-3-carboxamide]	> 30	< 0.05
Cc1cc(NC(=O)c2c(C)c(C(=O)C(=O)N[C@@H](C(=O)O)C(C)C)n(C)c2C)ccc1F [Example 101, (2-(4-((4-fluoro-3-methylphenyl)carbamoyl)-1,3,5-trimethyl-1H-pyrrol-2-yl)-2-oxoacetyl)-D-valine]	5 to 30	> 1
